# Columns and labels:
# Format in all cases: biochemical
# [1] = target: JAK2 (Homo sapiens, UniProt O60674); assay: experiment of inhibiting kinase activity (Caliper mobility shift assay), JAK2; conditions: for inhibition at 0.01 µM: at 10 nM; for inhibition at 0.01 µM / inhibition at 0.1 µM: read-out: inhibition rate JAK2; for inhibition at 0.1 µM: at 100 nM; for IC50: kinase activity assay, Table 3
# Method in brief: (§1)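 Steps: compound and kinase in 1× kinase buffer, 10 min at room temperature; ATP plus substrate added to start; reaction run at room temperature, then stopped. Conversion read by Caliper; IC50 from four-parameter variable-slope fit of % inhibition against log concentration.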
# [2] = target: TYK2 (Homo sapiens, UniProt P29597); assay: experiment of inhibiting kinase activity, TYK2; conditions: read-out: inhibition rate TYK2; for inhibition at 0.1 µM: at 100 nM; for inhibition at 0.01 µM: at 10 nM
# Experimental: (§2) The inhibition rates of tested compounds on JAK1, JAK2, JAK3, TYK2, CDK7, CDK9, EGFR (T790M) and LRRK2 kinases were measured. The test concentrations of the compounds were 10 nM and 100 nM, and the detection was performed by replicate wells. Alternatively, compounds were 3-fold serial diluted from 10 µM for 10 concentrations in replicate wells.
# [3] = target: JAK1 (Homo sapiens, UniProt P23458); assay: experiment of inhibiting kinase activity (Caliper mobility shift assay), JAK1; conditions: for inhibition at 0.1 µM: at 100 nM, read-out: inhibition rate JAK1; for IC50: kinase activity assay, Table 3
# Experimental: as §2
# (§3) The inhibitory effects of the compounds on JAK1, JAK2, JAK3, CDK7 and CDK9 kinases were detected by the method of Caliper mobility shift assay. 250 nL of the compound at 100-fold final concentration was transferred to a destination plate 384-well-plate by using a liquid handler Echo 550. A kinase solution at 2.5-fold final concentration was prepared with 1×kinase buffer. 10 µL of the kinase solution with 2.5-fold final concentration was added to compound wells and positive control wells; and 10 µL of 1×kinase buffer was added to negative control wells. The mixture was centrifuged at 1000 rpm for 30 seconds and then incubated at room temperature for 10 minutes. A mixed solution of ATP and kinase substrate at 5/3-fold final concentration was prepared with 1×kinase buffer, and 15 µL of the mixed solution of ATP and substrate at 5/3-fold final concentration was added to start the reaction. The 384-well plate was centrifuged at 1000 rpm for 30 seconds, shaked and mixed evenly, then incubated at room temperature for a corresponding time. 30 µL of stop solution was added to stop the kinase reaction, the mixture was centrifuged at 1000 rpm for 30 seconds, and shaked and mixed evenly. The conversion rate was read by Caliper EZ Reader. The conversion inhibition rate%=(average positive control conversion rate%-sample conversion rate%)/(average positive control conversion rate%-average negative control conversion rate%). Where negative control wells represent the conversion readings of the background well of kinase buffer; and positive control wells represent the conversion readings of wells without compound inhibition. With the log value of concentration as the x axis and the percentage inhibition rate as the y axis, the dose-response curve was fitted by the log (inhibitor) vs. response-variable slope of the analyzing softwar GraphPad Prism 5, and the IC50 values of each compound on enzyme activity were obtained. Calculation formula is as follows: y=Bottom+(Top-Bottom)/(1+10^((LogIC50-x)×hillslope)), where x is logarithm of inhibitor concentration; and Y is % inhibition rate.
# [4] = target: CDK7 (Homo sapiens, UniProt P50613); assay: experiment of inhibiting kinase activity (Caliper mobility shift assay), CDK7; conditions: for inhibition at 0.1 µM: at 100 nM, read-out: inhibition rate CDK7; for IC50: kinase activity assay, Table 3
# Experimental: as §2, §3
# [5] = target: T1, JAK3 (Homo sapiens, UniProt P52333); assay: experiment of inhibiting kinase activity (Caliper mobility shift assay), JAK3; conditions: for inhibition at 0.01 µM: at 10 nM; for inhibition at 0.01 µM / inhibition at 0.1 µM: read-out: inhibition rate JAK3; for inhibition at 0.1 µM: at 100 nM; for IC50: kinase activity assay, Table 3
# T1 sequence (P52333 1-1124): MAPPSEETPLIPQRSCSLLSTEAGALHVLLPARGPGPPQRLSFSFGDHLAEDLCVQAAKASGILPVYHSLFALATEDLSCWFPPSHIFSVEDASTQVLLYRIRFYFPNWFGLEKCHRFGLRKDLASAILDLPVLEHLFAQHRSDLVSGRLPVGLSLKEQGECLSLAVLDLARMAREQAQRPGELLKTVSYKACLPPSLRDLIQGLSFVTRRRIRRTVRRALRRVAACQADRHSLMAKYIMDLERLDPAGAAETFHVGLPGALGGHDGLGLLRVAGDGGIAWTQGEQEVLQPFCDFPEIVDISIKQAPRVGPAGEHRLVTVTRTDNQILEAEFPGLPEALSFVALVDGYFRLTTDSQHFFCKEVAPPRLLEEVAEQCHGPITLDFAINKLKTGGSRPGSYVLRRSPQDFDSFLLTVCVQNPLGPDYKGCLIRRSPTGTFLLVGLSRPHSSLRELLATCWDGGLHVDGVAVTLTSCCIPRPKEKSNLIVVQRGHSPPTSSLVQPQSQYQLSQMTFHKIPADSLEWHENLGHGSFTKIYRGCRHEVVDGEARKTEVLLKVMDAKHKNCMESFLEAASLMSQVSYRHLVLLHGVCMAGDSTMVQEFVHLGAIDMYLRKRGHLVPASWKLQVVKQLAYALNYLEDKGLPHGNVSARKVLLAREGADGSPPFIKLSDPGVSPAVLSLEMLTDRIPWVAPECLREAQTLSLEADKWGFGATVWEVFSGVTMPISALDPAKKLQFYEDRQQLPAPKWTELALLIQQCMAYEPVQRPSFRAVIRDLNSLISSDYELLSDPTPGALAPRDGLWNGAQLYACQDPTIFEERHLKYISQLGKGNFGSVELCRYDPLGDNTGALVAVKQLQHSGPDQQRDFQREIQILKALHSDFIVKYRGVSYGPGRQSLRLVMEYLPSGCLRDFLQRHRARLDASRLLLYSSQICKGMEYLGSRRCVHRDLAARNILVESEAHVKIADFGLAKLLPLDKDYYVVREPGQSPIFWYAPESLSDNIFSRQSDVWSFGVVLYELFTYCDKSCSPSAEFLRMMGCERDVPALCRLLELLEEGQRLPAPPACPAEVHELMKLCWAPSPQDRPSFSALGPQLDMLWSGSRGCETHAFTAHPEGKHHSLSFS
# Method in brief: as §1
# [6] = target: LRRK2 (Homo sapiens, UniProt Q5S007); assay: experiment of inhibiting kinase activity, LRRK2; conditions: for inhibition at 0.01 µM: at 10 nM; for inhibition at 0.01 µM / inhibition at 0.1 µM: read-out: inhibition rate LRRK2; for inhibition at 0.1 µM: at 100 nM; for IC50: kinase activity assay, Table 3
# Experimental: as §2
# [7] = target: CDK9 (Homo sapiens, UniProt P50750); assay: experiment of inhibiting kinase activity (Caliper mobility shift assay), CDK9; conditions: for inhibition at 0.1 µM: at 100 nM
# Experimental: as §2, §3
# Sequence of CDK7 (P50613 whole entry, species assumed): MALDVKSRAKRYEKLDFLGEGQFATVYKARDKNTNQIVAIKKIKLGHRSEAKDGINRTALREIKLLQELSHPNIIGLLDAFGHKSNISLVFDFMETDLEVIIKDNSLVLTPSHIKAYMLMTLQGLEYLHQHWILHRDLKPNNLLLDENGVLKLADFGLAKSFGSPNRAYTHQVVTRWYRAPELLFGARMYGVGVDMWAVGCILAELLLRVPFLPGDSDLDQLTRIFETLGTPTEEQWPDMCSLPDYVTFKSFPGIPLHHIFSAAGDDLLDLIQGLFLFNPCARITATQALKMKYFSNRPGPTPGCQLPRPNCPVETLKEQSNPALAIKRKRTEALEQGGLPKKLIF
# Sequence of CDK7 (P51946 whole entry partner, species assumed): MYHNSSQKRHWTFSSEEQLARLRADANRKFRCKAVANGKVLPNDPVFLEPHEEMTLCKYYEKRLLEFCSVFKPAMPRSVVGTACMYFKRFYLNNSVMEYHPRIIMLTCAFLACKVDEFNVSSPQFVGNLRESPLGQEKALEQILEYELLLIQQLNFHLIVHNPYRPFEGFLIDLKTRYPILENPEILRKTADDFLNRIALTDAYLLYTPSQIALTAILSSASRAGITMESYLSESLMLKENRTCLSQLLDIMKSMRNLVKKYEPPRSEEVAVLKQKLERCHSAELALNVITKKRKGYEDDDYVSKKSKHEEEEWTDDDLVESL
# Sequence of CDK7 (P51948 whole entry partner, species assumed): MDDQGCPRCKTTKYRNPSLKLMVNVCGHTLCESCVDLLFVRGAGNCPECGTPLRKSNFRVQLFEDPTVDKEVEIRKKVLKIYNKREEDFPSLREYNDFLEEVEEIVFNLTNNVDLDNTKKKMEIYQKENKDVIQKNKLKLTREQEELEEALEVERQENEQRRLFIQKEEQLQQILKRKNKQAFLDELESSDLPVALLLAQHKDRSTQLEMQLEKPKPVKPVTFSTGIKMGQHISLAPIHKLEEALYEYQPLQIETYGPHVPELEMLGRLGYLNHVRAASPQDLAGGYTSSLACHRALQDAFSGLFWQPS
# Sequence of JAK2 (O60674 whole entry): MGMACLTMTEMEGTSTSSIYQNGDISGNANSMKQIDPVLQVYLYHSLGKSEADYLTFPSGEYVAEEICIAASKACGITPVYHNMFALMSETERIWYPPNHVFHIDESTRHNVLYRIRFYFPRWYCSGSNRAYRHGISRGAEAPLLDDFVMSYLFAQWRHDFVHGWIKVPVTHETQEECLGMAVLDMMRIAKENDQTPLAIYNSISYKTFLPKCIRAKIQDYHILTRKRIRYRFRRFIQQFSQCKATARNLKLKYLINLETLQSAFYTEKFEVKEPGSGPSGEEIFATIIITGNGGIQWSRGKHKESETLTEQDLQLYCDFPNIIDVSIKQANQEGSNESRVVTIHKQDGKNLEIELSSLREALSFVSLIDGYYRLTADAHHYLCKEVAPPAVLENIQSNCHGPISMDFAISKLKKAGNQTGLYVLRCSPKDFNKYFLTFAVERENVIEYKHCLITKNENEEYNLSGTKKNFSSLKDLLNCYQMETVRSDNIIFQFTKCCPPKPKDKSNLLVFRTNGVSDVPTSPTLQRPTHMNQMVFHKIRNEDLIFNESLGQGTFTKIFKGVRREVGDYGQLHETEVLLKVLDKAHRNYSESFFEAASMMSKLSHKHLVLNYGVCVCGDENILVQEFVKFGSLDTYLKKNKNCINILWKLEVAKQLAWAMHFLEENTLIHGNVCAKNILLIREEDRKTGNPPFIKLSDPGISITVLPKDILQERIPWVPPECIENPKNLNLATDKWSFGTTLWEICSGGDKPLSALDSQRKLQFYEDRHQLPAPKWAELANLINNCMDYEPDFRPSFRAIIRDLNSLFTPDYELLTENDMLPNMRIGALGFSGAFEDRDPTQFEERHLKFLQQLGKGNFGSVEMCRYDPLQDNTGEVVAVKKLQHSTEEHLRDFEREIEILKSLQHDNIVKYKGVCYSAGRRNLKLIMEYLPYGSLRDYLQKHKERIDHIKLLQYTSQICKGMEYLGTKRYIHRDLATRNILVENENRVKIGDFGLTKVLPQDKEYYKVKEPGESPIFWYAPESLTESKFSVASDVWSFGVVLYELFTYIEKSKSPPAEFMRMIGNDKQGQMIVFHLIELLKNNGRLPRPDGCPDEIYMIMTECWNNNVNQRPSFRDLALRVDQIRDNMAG
# Sequence of LRRK2 (Q5S007 whole entry): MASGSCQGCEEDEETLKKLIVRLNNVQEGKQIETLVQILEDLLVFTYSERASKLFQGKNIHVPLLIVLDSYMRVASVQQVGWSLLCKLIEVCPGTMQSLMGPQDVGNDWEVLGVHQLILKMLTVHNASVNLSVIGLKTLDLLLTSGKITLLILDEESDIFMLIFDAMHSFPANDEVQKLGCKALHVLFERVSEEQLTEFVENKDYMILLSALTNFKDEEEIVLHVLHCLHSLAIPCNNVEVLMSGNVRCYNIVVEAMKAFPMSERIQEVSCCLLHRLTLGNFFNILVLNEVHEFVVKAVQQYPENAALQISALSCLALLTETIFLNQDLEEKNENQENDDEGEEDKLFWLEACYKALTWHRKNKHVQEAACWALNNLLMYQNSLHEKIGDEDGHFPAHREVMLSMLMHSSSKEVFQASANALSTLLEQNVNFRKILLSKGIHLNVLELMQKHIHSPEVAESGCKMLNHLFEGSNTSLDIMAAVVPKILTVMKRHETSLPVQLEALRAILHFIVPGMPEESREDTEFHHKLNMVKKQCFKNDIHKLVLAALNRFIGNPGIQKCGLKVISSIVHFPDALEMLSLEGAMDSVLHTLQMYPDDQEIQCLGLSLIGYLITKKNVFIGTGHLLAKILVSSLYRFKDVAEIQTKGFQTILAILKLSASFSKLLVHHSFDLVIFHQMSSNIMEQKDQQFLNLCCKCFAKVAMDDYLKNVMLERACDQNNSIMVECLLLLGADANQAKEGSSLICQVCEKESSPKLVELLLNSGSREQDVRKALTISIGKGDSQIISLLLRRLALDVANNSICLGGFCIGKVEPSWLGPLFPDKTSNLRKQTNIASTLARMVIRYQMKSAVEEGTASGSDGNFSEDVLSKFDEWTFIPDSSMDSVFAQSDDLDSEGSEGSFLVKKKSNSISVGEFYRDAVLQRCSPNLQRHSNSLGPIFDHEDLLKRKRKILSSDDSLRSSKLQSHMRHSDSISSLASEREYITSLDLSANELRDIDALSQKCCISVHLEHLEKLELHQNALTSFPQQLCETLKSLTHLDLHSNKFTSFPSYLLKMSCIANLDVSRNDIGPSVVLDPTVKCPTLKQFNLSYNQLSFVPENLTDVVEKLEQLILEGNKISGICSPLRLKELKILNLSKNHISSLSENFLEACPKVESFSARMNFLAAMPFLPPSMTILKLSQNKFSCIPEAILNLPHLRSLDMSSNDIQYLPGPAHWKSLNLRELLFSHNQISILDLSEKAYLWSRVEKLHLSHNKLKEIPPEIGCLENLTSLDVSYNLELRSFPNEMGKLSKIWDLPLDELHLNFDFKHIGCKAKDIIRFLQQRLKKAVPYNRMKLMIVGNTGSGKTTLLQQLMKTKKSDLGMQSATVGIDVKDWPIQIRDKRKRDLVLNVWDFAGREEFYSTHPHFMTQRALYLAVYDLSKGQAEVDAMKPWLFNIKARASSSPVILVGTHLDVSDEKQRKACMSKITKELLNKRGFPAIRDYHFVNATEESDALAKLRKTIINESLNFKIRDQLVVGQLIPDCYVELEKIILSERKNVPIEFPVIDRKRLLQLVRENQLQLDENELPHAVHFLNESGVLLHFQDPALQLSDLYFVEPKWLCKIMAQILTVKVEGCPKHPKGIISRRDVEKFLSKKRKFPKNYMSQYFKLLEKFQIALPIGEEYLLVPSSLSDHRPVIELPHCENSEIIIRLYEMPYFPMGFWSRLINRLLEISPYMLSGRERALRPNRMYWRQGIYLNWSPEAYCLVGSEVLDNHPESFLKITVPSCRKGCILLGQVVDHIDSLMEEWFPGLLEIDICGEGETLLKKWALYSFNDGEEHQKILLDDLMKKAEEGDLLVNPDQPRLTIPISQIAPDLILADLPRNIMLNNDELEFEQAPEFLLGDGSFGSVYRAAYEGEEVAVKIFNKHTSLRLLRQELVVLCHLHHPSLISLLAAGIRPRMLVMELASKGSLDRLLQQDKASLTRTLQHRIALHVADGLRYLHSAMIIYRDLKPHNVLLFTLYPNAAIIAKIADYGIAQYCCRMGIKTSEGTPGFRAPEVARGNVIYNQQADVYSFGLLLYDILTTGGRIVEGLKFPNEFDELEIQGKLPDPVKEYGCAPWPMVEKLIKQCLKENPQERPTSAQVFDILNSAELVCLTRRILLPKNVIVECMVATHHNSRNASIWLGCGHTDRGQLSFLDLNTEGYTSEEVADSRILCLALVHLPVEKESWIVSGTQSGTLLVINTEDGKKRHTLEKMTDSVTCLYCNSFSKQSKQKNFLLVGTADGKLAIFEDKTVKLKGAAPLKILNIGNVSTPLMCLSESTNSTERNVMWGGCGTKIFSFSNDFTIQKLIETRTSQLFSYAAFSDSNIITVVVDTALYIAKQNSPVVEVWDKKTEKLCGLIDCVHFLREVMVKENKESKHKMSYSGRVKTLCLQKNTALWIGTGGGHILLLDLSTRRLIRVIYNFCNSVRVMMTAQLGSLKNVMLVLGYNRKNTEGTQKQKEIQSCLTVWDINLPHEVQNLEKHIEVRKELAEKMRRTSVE
Compound,inhibition at 0.01 µM [1],inhibition at 0.1 µM [1],IC50 [1],inhibition at 0.1 µM [2],inhibition at 0.1 µM [3],IC50 [3],inhibition at 0.1 µM [4],IC50 [4],inhibition at 0.01 µM [5],inhibition at 0.1 µM [5],IC50 [5],inhibition at 0.01 µM [6],inhibition at 0.1 µM [6],IC50 [6],inhibition at 0.01 µM [2],inhibition at 0.1 µM ([7]; read-out: inhibition rate CDK9),"inhibition at 0.01 µM ([7]; at 10 nM, read-out: inhibition rate CDK9)","IC50 ([7]; kinase activity assay, Table 3)"
"CC(C)S(=O)(=O)c1ccccc1Nc1nc(Nc2ccc3c(c2)OCCN(C)CCO3)nc2[nH]ccc12 [Example 35, N^4-(2-(isopropylsulfonyl)phenyl)-N^2-(4-methyl-3,4,5,6-tetrahydro-2H-benzo[b][1,4, 7]dioxazolin-9-yl)-7H-pyrrolo[2,3-d]pyrimidin-2,4-diamine]",40 to 79%,> 80%,< 50 nM,40 to 79%,40 to 79%,50 to 200 nM,40 to 79%,< 50 nM,25 to 39%,> 80%,< 50 nM,> 80%,> 80%,< 50 nM,–,–,–,–
CN1CCOc2ccc(Nc3ncc(F)c(-c4cnn(C(CC#N)C5CCCC5)c4)n3)cc2OCC1 (centres unmarked) [Example 25],40 to 79%,> 80%,< 50 nM,> 80%,40 to 79%,–,40 to 79%,–,–,40 to 79%,< 50 nM,–,40 to 79%,50 to 200 nM,40 to 79%,–,–,–
"CC(C)S(=O)(=O)c1ccccc1Nc1nc(Nc2ccc3c(c2)OCCOCCN(C)CCO3)nc2[nH]ncc12 [Example 11, N^4-(2-(isopropylsulfonyl)phenyl)-N^6-(7-methyl-2,3,6,7,8,9-hexahydro-5H-benzo[b][1,4, 7]trioxa[10]azacyclododecan-13-yl)-1H-pyrazolo[3,4-d]pyrimidin-4,6-diamine]",40 to 79%,> 80%,–,> 80%,–,–,40 to 79%,–,40 to 79%,> 80%,–,–,40 to 79%,–,25 to 39%,–,–,–
"CN1CCOCCOc2cc(Nc3nc(-c4cn(C)c5ccccc45)c4cc[nH]c4n3)ccc2OCC1 [Example 23, 7-methyl-N-(4-(1-methyl-1H-indol-3-yl)-7H-pyrrolo[2,3-d]pyrimidin-2-yl)-2,3,6,7,8,9-hexahydro-5H-benzo[b][1,4,7]trioxa[10]azacyclododecan-13-amine]",–,> 80%,–,25 to 39%,–,–,40 to 79%,–,–,40 to 79%,–,–,40 to 79%,–,–,–,–,–
"CN1CCOc2ccc(Nc3nc(NCCP(C)(C)=O)c4cc[nH]c4n3)cc2OCC1 [Example 85, dimethyl(2-((2-((4-methyl-3,4,5,6-tetrahydro-2H-benzo[b][1,4,7]dioxazolin-9-yl)amino)-7H-pyrrolo[2,3-d]pyrimidin-4-yl)amino)ethyl)phosphine oxide]",–,–,–,–,–,–,–,–,–,–,–,–,–,< 50 nM,–,> 80%,–,–
"COc1ccc(F)cc1-c1nc(Nc2ccc3c(c2)OCCOCCN(C)CCO3)ncc1F [Example 115, N-(5-fluoro-4-(5-fluoro-2-methoxyphenyl)pyrimidin-2-yl)-7-methyl-2,3,6,7,8,9-hexahydro-5H-benzo[b][1,4,7]trioxa[10]azacyclododecan-13-amine]",–,–,–,–,–,–,–,–,–,–,–,–,–,–,–,–,40 to 79%,< 50 nM
"CN1CCOCCOc2cc(Nc3nc(Nc4cccc(S(=O)(=O)NC(C)(C)C)c4)c4cc[nH]c4n3)ccc2OCC1 [Example 20, N-(tert-butyl)-3-((2-((7-methyl-2,3,6,7,8,9-hexahydro-5H-benzo[b][1,4,7]trioxa[10]azacyclododecan-13-yl)amino)-7H-pyrrolo[2,3-d]pyrimidin-4-yl)amino)benzenesulfonamide]",–,> 80%,–,25 to 39%,–,–,40 to 79%,–,–,40 to 79%,–,–,40 to 79%,–,–,–,–,–
"CN1CCOc2ccc(Nc3ncc(F)c(-c4ccc(C(=O)NCC#N)cc4)n3)cc2OCC1 [Example 15, N-(Cyanomethyl)-4-(5-fluoro-2-((4-methyl-3,4,5,6-tetrahydro-2H-benzo[b][1,4,7]dioxazolin-9-yl)amino)pyrimidin-4-yl)benzamide]",40 to 79%,> 80%,< 50 nM,> 80%,40 to 79%,< 50 nM,–,–,–,–,< 50 nM,–,40 to 79%,50 to 200 nM,25 to 39%,40 to 79%,–,–
"CN1CCOCCOc2ccc(Nc3nc(Nc4cccc(S(=O)(=O)NC(C)(C)C)c4)c4cc[nH]c4n3)cc2OCC1 [Example 19, N-(tert-butyl)-3-((2-((7-methyl-2,3,6,7,8,9-hexahydro-5H-benzo[b][1,4,7]trioxa[10]azacyclododecan-12-yl)amino)-7H-pyrrolo[2,3-d]pyrimidin-4-yl)amino)benzenesulfonamide]",40 to 79%,> 80%,< 50 nM,25 to 39%,–,–,40 to 79%,< 50 nM,–,40 to 79%,–,40 to 79%,> 80%,< 50 nM,–,–,–,–
"CCS(=O)(=O)N1CC(CC#N)(n2cc(-c3nc(Nc4ccc5c(c4)OCCN(C)CCO5)ncc3F)cn2)C1 [Example 37, 2-(1-(ethylsulfonyl)-3-(4-(5-fluoro-2-((4-methyl-3,4,5,6-tetrahydro-2H-benzo[b] [1,4,7]dioxazolin-9-yl)amino)pyrimidin-4-yl)-1H-pyrazol-1-yl)azetidin-3-yl)acetonitrile]",40 to 79%,> 80%,< 50 nM,> 80%,40 to 79%,–,25 to 39%,–,40 to 79%,> 80%,< 50 nM,–,25 to 39%,–,40 to 79%,–,–,–
CN1CCOc2ccc(Nc3nc(-c4ccc(C(=O)NCC#N)cc4)c4cc[nH]c4n3)cc2OCC1 [Example 2],–,–,–,> 80%,–,–,25 to 39%,–,–,> 80%,< 50 nM,–,–,–,–,–,–,–

# From patent EP4592286A1, “MACROCYCLIC NITROGEN-CONTAINING CROWN ETHER COMPOUND AND USE THEREOF AS PROTEIN KINASE INHIBITOR” (Artivila Biopharma, priority 2022, dated 2024)
